Laboratory results: PMC9188586, “Design, synthesis and evaluation of novel tetrahydropyridothienopyrimidin-ureas as cytotoxic and anti-angiogenic agents” (Scientific Reports, 2022)

Key:
[1] = system: MCF-7 (breast cancer); test: MTT antiproliferative assay, MCF-7; format: cell-based
Experimental: (§1) Two series of new tetrahydropyridothienopyrimidines were evaluated for their cytotoxicity against a panel of cell lines, including MCF-7 (breast cancer), SW480 (colon cancer), PC-3 (prostate cancer), HEPG-2 (liver cancer) and HUVEC (human umbilical vein endothelial cell) using 3-(4,5-dimethyl- thiazol-2-yl)-2,5-diphenyltetrazolium bromide (MTT) assay. Sorafenib was used as a positive control. The cytotoxicity is expressed as the concentration that inhibits 50% of cell viability (IC50). […] The preliminary SAR is evaluated on the basis of cytotoxicity results of phenyl derivatives (11a–k) and pyridine derivatives (11l–11y).The mesomeric effect didn’t improve the cytotoxicity of compound 11d in the first series.
(§2) Cytotoxicity of the compounds was measured by detecting the ability of cells in transforming MTT into a purple formazan dye. The different cell lines were provided by the National Cell Bank of Iran (Pastor Institute, Tehran, Iran). The required materials and reagents were purchased from Sigma. After the cell culture in RPMI-1640 medium and DMEM containing 10% FBS (Gibco, Milano, Italy), the suspension of MCF-7 (7000) and other cells (5000) were poured into 96 well plates and incubated in a humidified incubator containing 5% CO2 at 37 °C for 24 h. Subsequently, a solution of the compounds in DMSO was added to these plates and incubated for 48 h. After incubation, the solution of 5% 3-(4,5-Dimethyl-2-thiazolyl)-2,5-diphenyl-2H-tetrazolium bromide (MTT) was added to all the wells and incubation was continued for another 4 h. The record of color intensity of the formazan solution was at 570 nm by Bio-Rad microplate reader (Model 680) which reflects the cell growth condition.

[2] = system: PC-3 (prostate cancer); test: MTT antiproliferative assay, PC-3; format: cell-based; conditions: 48 h incubation
Experimental: as §1, §2

[3] = system: SW480 (colon cancer); test: MTT antiproliferative assay, SW480; format: cell-based
Experimental: as §1, §2

[4] = system: HEPG-2 (liver cancer); test: MTT antiproliferative assay, HEPG-2; format: cell-based
Experimental: as §1, §2

[5] = system: HUVEC (human umbilical vein endothelial cell); test: MTT antiproliferative assay, HUVEC; format: cell-based; conditions: for IC50: MTT assay, 48 h incubation
Experimental: as §1, §2

[6] = Homo sapiens, MCF7, 48 h incubation
[7] = Homo sapiens, SW480, 48 h incubation
[8] = Homo sapiens, HepG2, 48 h incubation

SMILES | IC50 [1, 6] | IC50 [2] | IC50 [3, 7] | IC50 [4, 8] | melting point | IC50 ([1]; 48 h incubation) | IC50 ([3]; 48 h incubation) | IC50 ([4]; 48 h incubation) | IC50 ([5]; Homo sapiens, HUVEC) | IC50 [5] | increase of cytotoxicity against HUVEC on moving chlorine to para position ([5]; 11t vs 11u)
O=C(Nc1ccccc1)Nc1nnc(Sc2ncnc3sc4c(c23)CCN(Cc2ccccc2)C4)s1 [Compound 11a, 1-(5-((7-benzyl-5,6,7,8-tetrahydropyrido[4',3':4,5]thieno[2,3-d]pyrimidin-4-yl)thio)-1,3,4-thiadiazol-2-yl)-3-phenylurea] | 23.34 ± 0.18 µM | 34.4 ± 1.64 µM | 24.5 ± 0.72 µM | 7.34 ± 0.01 µM | 230 to 232 °C |  |  |  | 19.06 ± 0.12 µM |  | 
COc1ccc(NC(=O)Nc2nnc(Sc3ncnc4sc5c(c34)CCN(Cc3ccccc3)C5)s2)cc1 [Compound 11d, 1-(5-((7-benzyl-5,6,7,8-tetrahydropyrido[4',3':4,5]thieno[2,3-d]pyrimidin-4-yl)thio)-1,3,4-thiadiazol-2-yl)-3-(4-methoxyphenyl)urea] | 51.92 ± 0.47 µM | 44 ± 1.52 µM | 45.1 ± 1.7 µM | 43.92 ± 0.16 µM | 280 to 282 °C |  |  |  | 44.15 ± 0.22 µM |  | 
O=C(Nc1ccc(Cl)c(C(F)(F)F)c1)Nc1nnc(Sc2ncnc3sc4c(c23)CCN(Cc2ccccc2)C4)s1 [Compound 11k, 1-(5-((7-benzyl-5,6,7,8-tetrahydropyrido[4',3':4,5]thieno[2,3-d]pyrimidin-4-yl)thio)-1,3,4-thiadiazol-2-yl)-3-(4-chloro-3-(trifluoromethyl)phenyl)urea] | 24.66 ± 0.24 µM | 23.15 ± 0.21 µM | 63.5 ± 1.37 µM | 28.46 ± 0.25 µM |  |  |  |  | 37.56 ± 0.31 µM |  | 
Cc1ccc(NC(=O)Nc2nnc(Sc3ncnc4sc5c(c34)CCN(Cc3ccccc3)C5)s2)cc1Cl [Compound 11i, 1-(5-((7-benzyl-5,6,7,8-tetrahydropyrido[4',3':4,5]thieno[2,3-d]pyrimidin-4-yl)thio)-1,3,4-thiadiazol-2-yl)-3-(3-chloro-4-methylphenyl)urea] | 50.8 ± 0.54 µM | 41.8 ± 1.22 µM | 69.6 ± 1.88 µM | 3.33 ± 0.07 µM |  |  |  |  | 24.63 ± 0.22 µM |  | 
O=C(Nc1cccc(C(F)(F)F)c1)Nc1nnc(Sc2ncnc3sc4c(c23)CCN(Cc2ccccc2)C4)s1 [Compound 11j, 1-(5-((7-benzyl-5,6,7,8-tetrahydropyrido[4',3':4,5]thieno[2,3-d]pyrimidin-4-yl)thio)-1,3,4-thiadiazol-2-yl)-3-(3-(trifluoromethyl)phenyl)urea] | 68.94 ± 0.63 µM | 73.8 ± 2.92 µM | 46.8 ± 1.13 µM | 63 ± 0.64 µM | 181 to 183 °C |  |  |  | 67.1 ± 1.85 µM |  | 
O=C(Nc1ccc(Cl)cc1)Nc1nnc(Sc2ncnc3sc4c(c23)CCN(Cc2ccccc2)C4)s1 [Compound 11g, 1-(5-((7-benzyl-5,6,7,8-tetrahydropyrido[4',3':4,5]thieno[2,3-d]pyrimidin-4-yl)thio)-1,3,4-thiadiazol-2-yl)-3-(4-chlorophenyl)urea] | 62.4 ± 2.94 µM | 41.6 ± 1.1 µM | 56.5 ± 1.28 µM | 46.96 ± 0.35 µM |  |  |  |  | 27.29 ± 0.19 µM |  | 
O=C(Nc1cccc(F)c1)Nc1nnc(Sc2ncnc3sc4c(c23)CCN(Cc2ccccc2)C4)s1 [Compound 11e, 1-(5-((7-benzyl-5,6,7,8-tetrahydropyrido[4',3':4,5]thieno[2,3-d]pyrimidin-4-yl)thio)-1,3,4-thiadiazol-2-yl)-3-(3-fluorophenyl)urea] | 13 ± 0.18 µM | 42.8 ± 1.82 µM | 65.6 ± 1.74 µM | 9.84 ± 0.06 µM | 144 to 146 °C |  |  |  | 27.48 ± 0.07 µM |  | 
O=C(Nc1ccc(F)cc1)Nc1nnc(Sc2ncnc3sc4c(c23)CCN(Cc2ccccc2)C4)s1 [Compound 11f, 1-(5-((7-benzyl-5,6,7,8-tetrahydropyrido[4',3':4,5]thieno[2,3-d]pyrimidin-4-yl)thio)-1,3,4-thiadiazol-2-yl)-3-(4-fluorophenyl)urea] | 45.04 ± 0.41 µM | 41.4 ± 0.46 µM | 61.3 ± 2.02 µM | 30.7 ± 0.44 µM | 166 to 168 °C |  |  |  | 47.98 ± 0.27 µM |  | 
Cc1ccc(NC(=O)Nc2nnc(Sc3ncnc4sc5c(c34)CCN(Cc3ccccc3)C5)s2)cc1 [Compound 11c, 1-(5-((7-benzyl-5,6,7,8-tetrahydropyrido[4',3':4,5]thieno[2,3-d]pyrimidin-4-yl)thio)-1,3,4-thiadiazol-2-yl)-3-(p-tolyl)urea] | 42.87 ± 0.32 µM | 32.21 ± 0.3 µM | 70.2 ± 2.71 µM | 24.6 ± 0.39 µM |  |  |  |  | 26.12 ± 0.15 µM |  | 

Now from value to molecule, other results behind:

IC50 [1, 6] | IC50 [2] | IC50 [3, 7] | IC50 [4, 8] | melting point | IC50 ([1]; 48 h incubation) | IC50 ([3]; 48 h incubation) | IC50 ([4]; 48 h incubation) | SMILES | IC50 ([5]; Homo sapiens, HUVEC) | IC50 [5] | increase of cytotoxicity against HUVEC on moving chlorine to para position ([5]; 11t vs 11u)
4.69 ± 0.09 µM | 8.94 ± 0.03 µM | 30.5 ± 0.12 µM | 26.26 ± 0.24 µM | 229 to 231 °C |  |  |  | O=C(Nc1nnc(Sc2ncnc3sc4c(c23)CCN(Cc2ccncc2)C4)s1)Nc1ccccc1Cl [Compound 11s, 1-(2-chlorophenyl)-3-(5-((7-(pyridin-4-ylmethyl)-5,6,7,8-tetrahydropyrido[4',3':4,5]thieno[2,3-d]pyrimidin-4-yl)thio)-1,3,4-thiadiazol-2-yl)urea] | 6.87 ± 0.03 µM |  | 
 | 43.5 ± 1.62 µM |  |  |  | 3.72 ± 0.55 µM | 29.4 ± 1.01 µM | 67.4 ± 0.33 µM | COc1ccc(NC(=O)Nc2nnc(Sc3ncnc4sc5c(c34)CCN(Cc3ccncc3)C5)s2)cc1 [Compound 11p, (4-Methoxyphenyl)-3-(5-((7-(pyridin-4-ylmethyl)-5,6,7,8-tetrahydropyrido[4',3':4,5]thieno[2,3-d]pyrimidin-4-yl)thio)-1,3,4-thiadiazol-2-yl)urea] |  | 2.86 ± 0.05 µM | 
14.63 ± 0.07 µM | 33.6 ± 1.41 µM | 65.8 ± 0.28 µM | 69.32 ± 0.52 µM | 191 to 193 °C |  |  |  | COc1cccc(NC(=O)Nc2nnc(Sc3ncnc4sc5c(c34)CCN(Cc3ccncc3)C5)s2)c1 [Compound 11o, 1-(3-methoxyphenyl)-3-(5-((7-(pyridin-4-ylmethyl)-5,6,7,8-tetrahydropyrido[4',3':4,5]thieno[2,3-d]pyrimidin-4-yl)thio)-1,3,4-thiadiazol-2-yl)urea] | 20.6 ± 0.5 µM |  | 
12.68 ± 0.05 µM | 3.02 ± 1.12 µM | 14.6 ± 0.32 µM | 85 ± 3.4 µM |  |  |  |  | O=C(Nc1cccc(Cl)c1)Nc1nnc(Sc2ncnc3sc4c(c23)CCN(Cc2ccncc2)C4)s1 [Compound 11t, 1-(3-chlorophenyl)-3-(5-((7-(pyridin-4-ylmethyl)-5,6,7,8-tetrahydropyrido[4',3':4,5]thieno[2,3-d]pyrimidin-4-yl)thio)-1,3,4-thiadiazol-2-yl)urea] | 67 ± 2.02 µM |  | 
9.17 ± 0.04 µM | 4.5 ± 0.03 µM | 21.8 ± 0.72 µM | 74.3 ± 2.12 µM | 243 to 246 °C |  |  |  | O=C(Nc1cccc(F)c1)Nc1nnc(Sc2ncnc3sc4c(c23)CCN(Cc2ccncc2)C4)s1 [Compound 11q, 1-(3-fluorophenyl)-3-(5-((7-(pyridin-4-ylmethyl)-5,6,7,8-tetrahydropyrido[4',3':4,5]thieno[2,3-d]pyrimidin-4-yl)thio)-1,3,4-thiadiazol-2-yl)urea] | 10.13 ± 0.05 µM |  | 
8.1 ± 0.02 µM | 4.96 ± 0.18 µM | 60.7 ± 1.13 µM | 27.8 ± 1.84 µM | 188 to 190 °C |  |  |  | O=C(Nc1ccc(Cl)cc1)Nc1nnc(Sc2ncnc3sc4c(c23)CCN(Cc2ccncc2)C4)s1 [Compound 11u, 1-(4-chlorophenyl)-3-(5-((7-(pyridin-4-ylmethyl)-5,6,7,8-tetrahydropyrido[4',3':4,5]thieno[2,3-d]pyrimidin-4-yl)thio)-1,3,4-thiadiazol-2-yl)urea] | 2.08 ± 0.01 µM |  | ~30 folds
5.69 ± 0.03 µM | 18.98 ± 0.11 µM | 66.3 ± 1.24 µM | 67.5 ± 1.38 µM |  |  |  |  | O=C(Nc1ccc(F)cc1)Nc1nnc(Sc2ncnc3sc4c(c23)CCN(Cc2ccncc2)C4)s1 [Compound 11r, 1-(4-fluorophenyl)-3-(5-((7-(pyridin-4-ylmethyl)-5,6,7,8-tetrahydropyrido[4',3':4,5]thieno[2,3-d]pyrimidin-4-yl)thio)-1,3,4-thiadiazol-2-yl)urea] | 48.2 ± 0.62 µM |  | 
20.48 ± 0.11 µM | 4.37 ± 0.06 µM | 45.69 ± 0.06 µM | 71.6 ± 3.24 µM | 257 to 260 °C |  |  |  | O=C(Nc1ccc(Cl)c(C(F)(F)F)c1)Nc1nnc(Sc2ncnc3sc4c(c23)CCN(Cc2ccncc2)C4)s1 [Compound 11y, 1-(4-chloro-3-(trifluoromethyl)phenyl)-3-(5-((7-(pyridin-4-ylmethyl)-5,6,7,8-tetrahydropyrido[4',3':4,5]thieno[2,3-d]pyrimidin-4-yl)thio)-1,3,4-thiadiazol-2-yl)urea] | 57.1 ± 0.61 µM |  | 
10.37 ± 0.03 µM | 55.3 ± 1.82 µM | 67.7 ± 1.55 µM | 26.4 ± 0.9 µM |  |  |  |  | O=C(Nc1ccc(Cl)c(Cl)c1)Nc1nnc(Sc2ncnc3sc4c(c23)CCN(Cc2ccncc2)C4)s1 [Compound 11v, 1-(3,4-dichlorophenyl)-3-(5-((7-(pyridin-4-ylmethyl)-5,6,7,8-tetrahydropyrido[4',3':4,5]thieno[2,3-d]pyrimidin-4-yl)thio)-1,3,4-thiadiazol-2-yl)urea] | 68.4 ± 1.44 µM |  | 
